This is an account of results in patent publication US20210300924A1, “5-[6-[[3-(4,5,6,7-TETRAHYDROPYRAZOLO[4,3-C]PYRIDIN-1-YL)AZETIDIN-1-YL]METHYL]MORPHOLIN-4-YL]QUINOLINE-8-CARBONITRILE DERIVATIVES AND SIMILAR COMPOUNDS AS TLR7-9 ANTAGONISTS FOR TREATING SYSTEMIC LUPUS ERYTHEMATOSUS” (Hoffmann-La Roche Inc., priority 2018, published 2021).

In this assay the target is T1, human TLR8 (Homo sapiens, UniProt Q9NR97).
T1 construct: host or cells: HEK293 (HEK-Blue hTLR8)
T1 sequence (Q9NR97 27-1041): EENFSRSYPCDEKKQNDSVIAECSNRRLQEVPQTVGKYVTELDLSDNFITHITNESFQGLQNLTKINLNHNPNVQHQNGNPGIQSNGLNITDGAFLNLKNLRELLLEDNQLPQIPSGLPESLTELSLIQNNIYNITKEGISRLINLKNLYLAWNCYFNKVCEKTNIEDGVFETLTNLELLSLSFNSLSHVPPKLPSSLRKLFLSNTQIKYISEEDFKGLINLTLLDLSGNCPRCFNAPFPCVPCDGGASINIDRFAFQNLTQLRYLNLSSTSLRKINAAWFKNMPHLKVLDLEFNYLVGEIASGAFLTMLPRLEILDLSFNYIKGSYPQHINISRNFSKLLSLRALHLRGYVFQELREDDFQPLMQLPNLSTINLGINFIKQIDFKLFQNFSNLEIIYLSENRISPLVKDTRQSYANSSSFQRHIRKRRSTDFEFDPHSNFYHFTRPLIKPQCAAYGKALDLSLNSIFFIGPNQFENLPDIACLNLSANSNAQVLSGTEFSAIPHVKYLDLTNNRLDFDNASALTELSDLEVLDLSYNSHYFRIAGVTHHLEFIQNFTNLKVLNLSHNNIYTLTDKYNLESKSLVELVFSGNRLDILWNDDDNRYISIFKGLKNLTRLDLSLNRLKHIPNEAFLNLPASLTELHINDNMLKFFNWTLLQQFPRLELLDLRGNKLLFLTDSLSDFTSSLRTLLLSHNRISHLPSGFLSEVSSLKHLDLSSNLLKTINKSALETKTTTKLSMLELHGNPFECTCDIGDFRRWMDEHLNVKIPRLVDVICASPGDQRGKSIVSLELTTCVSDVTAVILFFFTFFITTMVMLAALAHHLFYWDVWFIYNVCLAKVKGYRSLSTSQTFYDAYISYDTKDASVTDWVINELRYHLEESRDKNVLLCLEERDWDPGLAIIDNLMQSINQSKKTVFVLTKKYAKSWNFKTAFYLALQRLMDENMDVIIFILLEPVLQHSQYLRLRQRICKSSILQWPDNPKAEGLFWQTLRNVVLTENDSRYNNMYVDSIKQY
The assay can be described thus: HEK293-Blue-hTLR-8 cells assay. It is filed as cell-based. The note with it: HEK293-Blue-hTLR8 cells, R848 stimulation, 20 hrs, SEAP reporter; read-out: HEK/hTLR8 IC50. An excerpt:
A stable HEK293-Blue-hTLR-8 cell line was purchased from InvivoGen (Cat. #: hkb-htlr8, San Diego, Calif., USA). These cells were originally designed for studying the stimulation of human TLR8 by monitoring the activation of NF-κB. A SEAP (secreted embryonic alkaline phosphatase) reporter gene was placed under the control of the IFN-β minimal promoter fused to five NF-κB and AP-1-binding sites. The SEAP was induced by activating NF-κB and AP-1 via stimulating HEK-Blue hTLR8 cells with TLR8 ligands. Therefore the reporter expression was declined by TLR8 antagonist under the stimulation of a ligand, such as R848, for incubation of 20 hrs. The cell culture supernatant SEAP reporter activity was determined using QUANTI-Blue™ kit (Cat. #: rep-qb1, Invivogen, San Diego, Ca, USA) at a wavelength of 640 nm, a detection medium that turns purple or blue in the presence of alkaline phosphatase.
HEK293-Blue-hTLR8 cells were incubated at a density of 250,000-450,000 cells/mL in a volume of 170 μL in a 96-well plate in Dulbecco's Modified Eagle's medium (DMEM) containing 4.5 g/L glucose, 50 U/mL penicillin, […], […], 2 mM L-glutamine, 10% (v/v) heat-inactivated fetal bovine serum with addition of 20 μL test compound in a serial dilution in the presence of final DMSO at 1% and 10 μL of 60 uM R848 in above DMEM, perform incubation under 37° C. in a CO2 incubator for 20 hrs. Then 20 μL of the supernatant from each well was incubated with […] Quanti-blue substrate solution at 37° C. for 2 hrs and the absorbance was read at 620-655 nm using a spectrophotometer. The signaling pathway that TLR8 activation leads to downstream NF-κB activation has been widely accepted, and therefore similar reporter assay was modified for evaluating TLR8 antagonist.
For the molecule `C[C@@H]1CN(c2ccc(C#N)c3ncccc23)C[C@H](CN2CC(n3cc4c(n3)[C@@H](C)CNC4)C2)O1` (single isomer, unassigned) [Example 26], the IC50 came out at 12 nM.

For `C[C@@H]1CN(c2ccc(C#N)c3ncccc23)C[C@H](CN2CC(n3ncc4c3CCN[C@H]4C)C2)O1` [Example 22, 5-[(2R,6S)-2-methyl-6-[[3-[(4S)-4-methyl-4,5,6,7-tetrahydropyrazolo[4,3-c]pyridin-1-yl]azetidin-1-yl]methyl]morpholin-4-yl]quinoline-8-carbonitrile], the IC50 was determined as 37 nM. Then `C[C@@H]1CN(c2ccc(C#N)c3ncccc23)C[C@H](CN2CC(n3cc4c(n3)CNCC4)C2)O1` [Example 4, 5-[(2R,6S)-2-methyl-6-[[3-(4,5,6,7-tetrahydropyrazolo[3,4-c]pyridin-2-yl)azetidin-1-yl]methyl]morpholin-4-yl]quinoline-8-carbonitrile], with 9 nM; and `C[C@@H]1CN(c2ccc(C#N)c3ncccc23)C[C@H](CN2CC(n3cc4c(n3)CN[C@@H](C)C4)C2)O1` (single isomer, unassigned) [Example 29], with 11 nM; and `C[C@@H]1Cc2nn(C3CN(C[C@H]4CN(c5ccc(C#N)c6ncccc56)C[C@@H](C)O4)C3)cc2CN1` [Example 17, 5-[(2R,6S)-2-methyl-6-[[3-[(6R)-6-methyl-4,5,6,7-tetrahydropyrazolo[4,3-c]pyridin-2-yl]azetidin-1-yl]methyl]morpholin-4-yl]quinoline-8-carbonitrile], with 18 nM.

On to `C[C@@H]1CN(c2ccc(C#N)c3ncccc23)C[C@H](CN2CCC(n3ncc4c3CCNC4)CC2)O1` [Example 35, 5-[(2R,6S)-2-methyl-6-[[4-(4,5,6,7-tetrahydropyrazolo[4,3-c]pyridin-1-yl)-1-piperidyl]methyl]morpholin-4-yl]quinoline-8-carbonitrile], for which the IC50 was determined as 25 nM. In the case of `Cc1nn(C2CN(C[C@H]3CN(c4ccc(C#N)c5ncccc45)C[C@@H](C)O3)C2)c2c1CNCC2` [Example 12, 5-[(2R,6S)-2-methyl-6-[[3-(3-methyl-4,5,6,7-tetrahydropyrazolo[4,3-c]pyridin-1-yl)azetidin-1-yl]methyl]morpholin-4-yl]quinoline-8-carbonitrile], the IC50 is 44 nM.

In the case of `C[C@@H]1CN(c2ccc(C#N)c3ncccc23)C[C@H](CN2CC(n3cc4c(n3)[C@H](C)CNC4)C2)O1` (single isomer, unassigned) [Example 25], the IC50 turned out to be 11 nM. On to `C[C@@H]1CN(c2ccc(C#N)c3ncccc23)C[C@H](CN2CC(n3cc4c(n3)CN(C)CC4)C2)O1` [Example 5, 5-[(2R,6S)-2-methyl-6-[[3-(6-methyl-5,7-dihydro-4H-pyrazolo[3,4-c]pyridin-2-yl)azetidin-1-yl]methyl]morpholin-4-yl]quinoline-8-carbonitrile], for which the IC50 worked out at 6 nM. Next, `C[C@@H]1CN(c2ccc(C#N)c3ncccc23)C[C@H](CN2CC(n3ncc4c3[C@H](C)NCC4)C2)O1` (single isomer, unassigned) [Example 32]: 10 nM. For the molecule `C[C@@H]1Cc2cnn(C3CN(C[C@H]4CN(c5ccc(C#N)c6ncccc56)C[C@@H](C)O4)C3)c2CN1` (single isomer, unassigned) [Example 28], the IC50 was 10 nM. Then `C[C@@H]1CN(c2ccc(C#N)c3ncccc23)C[C@H](CN2CC(n3cc4c(n3)[C@@H](C)NCC4)C2)O1` (single isomer, unassigned) [Example 33], with 13 nM; and `Cc1nn(C2CN(C[C@H]3CN(c4ccc(C#N)c5ncccc45)C[C@@H](C)O3)C2)c2c1CN(C)CC2` [Example 14, 5-[(2S,6R)-2-[[3-(3,5-dimethyl-6,7-dihydro-4H-pyrazolo[4,3-c]pyridin-1-yl)azetidin-1-yl]methyl]-6-methyl-morpholin-4-yl]quinoline-8-carbonitrile], with 10 nM.

For the molecule `C[C@@H]1CN(c2ccc(C#N)c3ncccc23)C[C@H](CN2CC(n3cc4c(n3)CCN[C@@H]4C)C2)O1` [Example 21, 5-[(2R,6S)-2-methyl-6-[[3-[(4R)-4-methyl-4,5,6,7-tetrahydropyrazolo[4,3-c]pyridin-2-yl]azetidin-1-yl]methyl]morpholin-4-yl]quinoline-8-carbonitrile], the IC50 worked out at 72 nM.

With `C[C@@H]1CN(c2ccc(C#N)c3ncccc23)C[C@H](CN2CC(n3ncc4c3CN[C@@H](C)C4)C2)O1` (single isomer, unassigned) [Example 27], the IC50 was 8 nM. For `C[C@@H]1CN(c2ccc(C#N)c3ncccc23)C[C@H](CN2CC(n3ncc4c3CCN[C@@H]4C)C2)O1` [Example 20, 5-[(2R,6S)-2-methyl-6-[[3-[(4R)-4-methyl-4,5,6,7-tetrahydropyrazolo[4,3-c]pyridin-1-yl]azetidin-1-yl]methyl]morpholin-4-yl]quinoline-8-carbonitrile], the IC50 came to 28 nM. In the case of `C[C@@H]1CN(c2ccc(C#N)c3ncccc23)C[C@H](CN2CC(n3cc4c(n3)C[C@H](C)NC4)C2)O1` [Example 19, 5-[(2R,6S)-2-methyl-6-[[3-[(6S)-6-methyl-4,5,6,7-tetrahydropyrazolo[4,3-c]pyridin-2-yl]azetidin-1-yl]methyl]morpholin-4-yl]quinoline-8-carbonitrile], the IC50 is 22 nM. Then `CCN1CCc2cnn(C3CN(C[C@H]4CN(c5ccc(C#N)c6ncccc56)C[C@@H](C)O4)C3)c2C1` [Example 6, 5-[(2S,6R)-2-[[3-(6-ethyl-5,7-dihydro-4H-pyrazolo[3,4-c]pyridin-1-yl)azetidin-1-yl]methyl]-6-methyl-morpholin-4-yl]quinoline-8-carbonitrile], with 5 nM; and `C[C@@H]1CN(c2ccc(C#N)c3ncccc23)C[C@H](CN2CC(n3cc4c(n3)CCN[C@H]4C)C2)O1` [Example 23, 5-[(2R,6S)-2-methyl-6-[[3-[(4S)-4-methyl-4,5,6,7-tetrahydropyrazolo[4,3-c]pyridin-2-yl]azetidin-1-yl]methyl]morpholin-4-yl]quinoline-8-carbonitrile], with 44 nM; and `C[C@@H]1CN(c2ccc(C#N)c3ncccc23)C[C@H](CN2CC(n3ncc4c3[C@@H](C)NCC4)C2)O1` (single isomer, unassigned) [Example 31], with 5 nM.

With `Cc1c2c(nn1C1CN(C[C@H]3CN(c4ccc(C#N)c5ncccc45)C[C@@H](C)O3)C1)CCNC2` [Example 13, 5-[(2R,6S)-2-methyl-6-[[3-(3-methyl-4,5,6,7-tetrahydropyrazolo[4,3-c]pyridin-2-yl)azetidin-1-yl]methyl]morpholin-4-yl]quinoline-8-carbonitrile], the IC50 is 45 nM. Regarding `Cc1c2c(nn1C1CN(C[C@H]3CN(c4ccc(C#N)c5ncccc45)C[C@@H](C)O3)C1)CNCC2` [Example 43, 5-[(2R,6S)-2-methyl-6-[[3-(3-methyl-4,5,6,7-tetrahydropyrazolo[3,4-c]pyridin-2-yl)azetidin-1-yl]methyl]morpholin-4-yl]quinoline-8-carbonitrile], the IC50 amounted to 34 nM. Consider `CC(C)N1CCc2cn(C3CN(C[C@H]4CN(c5ccc(C#N)c6ncccc56)C[C@@H](C)O4)C3)nc2C1` [Example 9, 5-[(2S,6R)-2-[[3-(6-isopropyl-5,7-dihydro-4H-pyrazolo[3,4-c]pyridin-2-yl)azetidin-1-yl]methyl]-6-methyl-morpholin-4-yl]quinoline-8-carbonitrile], for which the IC50 stood at 7 nM.
